Entries after “also recorded” stand apart in the source; their conditions may differ.

One compound from patent US20040141912A1, “Method for targeting chemical compounds to cells and pharmaceutical compositions used therein” (priority 2001, published 2004) can be followed below.

Format in all cases: cell-based, human
The test system of assay [1] is Jurkat cells. As to the kind of experiment: FACS analysis of DDC uptake by Jurkat cells induced to undergo apoptosis by anti-Fas antibody (PI co-staining). As to the method:
FIG. 3: Cultured Jurkat cells (A) were induced to undergo apoptosis by anti-Fas antibody (0.1 μg/ml) for three hours. Subsequently, both control cells (A and C) and apoptotic cells (B and D) were then incubated with 50 μM of DDC in the presence (C and D) and absence (A and B) of 1 μM of rottlerin, an inhibitor of PKCδ. Prior to FACS analysis, cells were also co-stained with propidium iodide (PI), a marker of membrane disintegration during late phases of cell death. In the shown dot plot, the left lower quadrant represents the healthy, non-stained fraction of cells. The right lower quadrant represents the newly formed population of cells in the early stages of apoptosis. These cells are PLS-activated cells, yet still maintaining membrane integrity and thus excluding PI. Cells binding both DDC and PI, i.e., cells in the late stages of apoptosis are represented in the right upper quadrant. The induction of apoptosis was associated with the emergence of a marked, distinct population of cells in the early stages of the apoptotic process, selectively binding DDC and occupying the right lower quadrant of the plot. […] UV axis denotes fluorescence intensity of DDC; FL2 axis denotes fluorescence intensity of PI.
FIG. 4: Jurkat cells were induced to undergo apoptosis by treatment with anti-Fas Ab (0.1 μg/ml) for three hours. Subsequently, cells were co-incubated with 50 μM of DDC and PI, in the presence of 1 mM of CaCl2, or under conditions of calcium deprivation (i.e., co-administration of the calcium chelators BAPTA and EGTA). Binding of DDC and PI was evaluated by FACS.
FIG. 4A: A and C: control cells; B and D: apoptotic cells; A and B: with Ca^2+; C and D: deprivation of Ca^2+. The lower left quadrant in each dot plot represents the healthy non-stained fraction of cells. The lower right quadrant represents the newly formed population of cells in the early stages of apoptosis, characterized by activation of PLS, but still maintaining membrane integrity. […] However, DDC binding to the cells in early apoptosis was markedly lost upon inhibition of PLS by calcium deprivation (B versus D).
Cultured Jurkat cells were grown as described in Example 1, and apoptosis was then triggered by treatment with anti-Fas Ab (0.1 μg/ml) for three hours, thus inducing […] activation in these cells.
In order to inhibit PLS activity in the apoptotic cells, rottlerin was used (Calbiochem, Germany). […] Subsequent to induction of apoptosis, cells were incubated for 40 minutes with rottlerin, at a concentration of 1 μM, were then subjected to treatment with DDC at a concentration of […] and immediately taken for FACS analysis (FIG. 3).
Inhibition of PLS activity in the apoptotic cells was also achieved by reduction of ambient Ca^2+ levels. Following induction of apoptosis, both control and apoptotic cells (1×10^7 cells) were subjected to Ca^2+-deprivation, by co-treatment with BAPTA (20 μM) and EGTA (1 mM) for 30 minutes. Cells were then treated with DDC (250 μM) and propidium iodide (PI). Binding of DDC to these Ca^2+-deprived cells and to control, Ca^2+-treated (1 mM) cells was analyzed by FACS, and the dot plot is shown in FIG. 4A. The lower left quadrant in each dot plot represents the healthy fraction of cells. The lower right quadrant represents the newly-formed population of cells in the early stages of apoptosis, still maintaining membrane integrity but characterized by activation of PLS. As shown, these cells manifest DDC binding while excluding PI. The upper right quadrant represents cells in the late stages of apoptosis, characterized by disintegration of the plasma membrane, thus unselectively permeable to compounds including PI, that is normally excluded from healthy cells.
Induction of apoptosis is a major pathway for the activation of PLS. […] For this purpose, apoptosis was triggered in cultured Jurkat cells by treatment with anti-Fas antibody. […]
For orientation: In flow cytometry, cells or beads pass a laser one at a time.

In assay [2] the test system is Jurkat cells. As to the kind of experiment: FACS analysis of NST830 uptake by Jurkat cells induced to undergo apoptosis by anti-Fas antibody (PI co-staining). Conditions: upper right quadrant. As to the method:
FIG. 7 Jurkat cells were induced to undergo apoptosis by anti-Fas Ab treatment as described for FIG. 3 above. Subsequently, cells were incubated with 50 μM of NST830 for 5 minutes, co-stained with PI and subjected to FACS analysis. In order to inhibit PLS in apoptotic cells, two approaches were used:
(i). Ca^2+-deprivation: apoptotic cells were incubated for 30 min at room temperature in the presence of BAPTA (20 μM) and EGTA (1 mM), and then treated with NST830 and PI as above.
(ii). PLS inhibition by rottlerin: prior to treatment with NST830 and PI, apoptotic cells were incubated for 40 min in the presence of 0.5 μM of rottlerin, and then submitted to FACS analysis.
Cultured Jurkat cells were induced to undergo apoptosis by anti-Fas antibody (0.1 μg/ml) for 2.5 hours, as described in Example 1. Subsequently, both control and apoptotic cells were incubated with 50 μM of NST830 for 5 minutes, and uptake was measured by FACS. Prior to FACS analysis, cells were also co-stained with PI. Induction of apoptosis was associated with the emergence of a large, distinct population of 64% of cells in the early stages of the apoptotic process, selectively binding NST830 and occupying the right lower quadrant of the plot. No substantial change was observed under these conditions in the percentage of cells in late apoptosis, that are unselectively permeable to PI and NST830. […]

Assay [3] relates to Jurkat cells. Put plainly: FACS analysis of DDC uptake by Jurkat cells induced to undergo apoptosis by anti-Fas antibody (PI co-staining). This is another data set of the same source.

Turning to `CN(C)c1cccc2c(S(=O)(=O)NC(CSSCC(NS(=O)(=O)c3cccc4c(N(C)C)cccc34)C(=O)O)C(=O)O)cccc12` (stereo not drawn) [DDC], the “Binding of DDC to cells in the late stages of apoptosis upon calcium deprivation” value in the assay on Jurkat cells [1] (PI-permeable cells, BAPTA + EGTA) is “no effect of PLS inhibition; also recorded: did not affect binding of DDC”. Further, the “Cells in the early stages of apoptosis binding DDC (right lower quadrant)” value in the assay on Jurkat cells [1] (apoptotic cells (anti-Fas 0.1 μg/ml 3 h), absence of rottlerin) is 46%; in the assay on Jurkat cells [1] (apoptotic cells, rottlerin 1 μM (PKCδ inhibitor), 40 min) it was 7.9%. Besides, the “Uptake of DDC by cells in the early stages of apoptosis” value is 38.4% in the assay with Jurkat cells [1] (apoptotic cells (anti-Fas), with Ca2+ 1 mM) and 8.89% in the assay with Jurkat cells [1] (apoptotic cells, Ca2+-deprivation: BAPTA 20 μM + EGTA 1 mM, 30 min). Moreover, in the assay with Jurkat cells [1] (control cells, with Ca2+ 1 mM), the “Uptake of DDC (early-apoptosis quadrant)” value is reported as 4.11%. Besides, in the assay on Jurkat cells [1] (right upper quadrant (DDC and PI positive), rottlerin 1 μM), the “DDC binding to cells in the late stages of apoptosis in response to rottlerin” value is given as “did not manifest alterations in DDC binding”. Moreover, the “NST830-binding, PI-permeable late apoptotic cells upon Ca2+-deprivation” value in the assay on Jurkat cells [2] (BAPTA + EGTA) is “unaffected”. Moreover, the “NST830-binding, PI-permeable late apoptotic cells in the presence of rottlerin” value with Jurkat cells [2] (rottlerin 0.5 μM) is reported as “no change was detected”. Besides, in the assay with Jurkat cells [3] (anti-Fas 3 h + Z-VAD-fmk 50 μM, DDC 50 μM 5 min), the “DDC binding by cells in early apoptosis with pan-caspase inhibitor” value is given as “abolished this DDC binding”. Also, in the assay on Jurkat cells [3] (anti-Fas 3 h without Z-VAD-fmk, DDC 50 μM 5 min), the “DDC binding by cells in early apoptosis (peak B)” value was “marked DDC binding”. In addition, the “DDC binding to cells in the late stages of apoptosis (peak C) with pan-caspase inhibitor” value with Jurkat cells [3] (anti-Fas + Z-VAD-fmk 50 μM) is “no significant alterations”.
